# In US20230365988A1, “MOUSE MODEL FOR BIO-IMAGING OF INFLAMMATORY SIGNALS, PREPARATION METHOD THEREFOR AND USE THEREOF” (KOREA MOUSE PHENOTYPING CENTER, priority 2020, published 2023):
# Entries after “also recorded” stand apart in the source; their conditions may differ.
# Columns and labels:
# [1] = system: NF-κB; assay: Luciferase activity in LPS-treated bone marrow-derived macrophages of the myeloid-specific NF-κB reporter mouse; format: cell-based; details: 6 hours
# Protocol: (§1) Macrophages, mononuclear cells, derived from the bone marrow of the mouse model established in Example <2-1> were differentiated, luciferase activity was confirmed, and NF-κ activity and luciferase protein expression were confirmed by Western blotting. In addition, 20 uM BAY 11-7082 (NF-kB inhibitor) was treated simultaneously with LPS in the same manner as above to evaluate the luciferase activity.
# Particularly, the mouse was euthanized with CO2, the femur and tibia were obtained, and the bone marrow cavity was exposed. Then, RPMI 1640 culture medium (10% FBS, 1% penicillin, stretptomycin) containing M-CSF was passed through using a 1 ml syringe, and the contents were collected to make 6 ml of the culture medium. Thereafter, the contents were transferred to a Petri dish and cultured for 3 days at 37° C. under 5% CO2 conditions, and then the medium was replaced with fresh RPMI 1640 culture medium. After 3 days, the culture medium was removed from the Petri dish and washed with PBS (phosphate buffered saline). […] After 6 hours, the culture medium was removed, and 100 μl of HBSS (Hanks' Balanced Salt solution) containing D-luciferin was added to each well of the plate, and then the luciferase activity was evaluated.
# [2] = system: NF-κB; assay: Western blotting of luciferase expression in LPS-treated bone marrow-derived macrophages; format: cell-based, mouse; details: LPS 10 ng/ml and 100 ng/ml, 6 hours
# Protocol: as §1
# For Western blotting, the detached cells were diluted in RPMI 1640 culture medium, and then distributed in a 6 well plate at the density of 70,000 cells/well, followed by culture. After 24 hours of culture, the experimental group was treated with LPS at the concentrations of 10 ng/ml and 100 ng/ml for 6 hours. The culture medium was removed and homogenized with a buffer containing 20 mM Tris-HCl (pH 7.4), 1% Triton X-100, 15 mM NaCl and protease inhibition cocktail, and centrifuged at 4° C., 13,000 g for 20 minutes. Then, SDS-PAGE (sodium dodecyl sulfate-polyacrylamide gel electrophoresis) was performed using the supernatant to separate proteins. The separated proteins were transferred to a PVDF membrane and blocked with TBST buffer (Tris-Buffered Saline, 0.1% TWEEN 20) containing 5% skim milk powder. […]
# [3] = system: NF-κB; assay: DSS-induced colitis model, luciferase imaging; format: in vivo; details: 3% DSS as drinking water, days 3 and 5, Lyz2-Cre reporter mouse
# Protocol: Colitis was induced by DSS (dextran sulfate sodium salt) in the mouse model established in Example <2-1>, and it was confirmed whether bio-imaging of inflammatory signals over time was possible.
# Particularly, 6 g of DSS was added to sterilized tertiary distilled water and stirred for 60 minutes to prepare a 3% DSS aqueous solution. […] After the measurement, the 3% DSS aqueous solution was supplied as drinking water to the mice. While maintaining DSS supply, 100 ? of D-luciferin (15 mg/ ? in PBS) was intraperitoneally administered using a 1 ? syringe on the days after 3 and 5 days after the start of DSS supply, and luciferase signals were measured in the abdomen.
# [4] = system: NF-κB; assay: PMA-induced ear edema model, luciferase imaging; format: in vivo; details: 2 μg PMA on left ear twice at a 24 hour interval, measured 24 hours later, Lyz2-Cre reporter mouse
# Protocol: To confirm imaging of inflammatory signals in the mouse model established in Example <2-1>, ear edema was induced by treatment with PMA (phorbol 12-myristate 13-acetate), an inflammatory factor.
# Particularly, the left ear of the mouse was treated with 2 μg/40 ? of PMA diluted in ethanol using a micropipette, and the right ear was treated with the same amount of ethanol (40 ? ). After 24 hours, the left ear was treated with 2 μg of PMA, and the right ear was treated with the same amount of ethanol (40 ? ). After another 24 hours, 100 ? of D-luciferin (15 mg/ml in PBS) was intraperitoneally administered using a 1 ml syringe, and luciferase signals were measured in the ears of the mouse under respiratory anesthesia with isoflurane.
molecule,measurement,setting,value
lipopolysaccharide [LPS],luciferase signal activity,[1]; LPS 10 ng/ml and 100 ng/ml,increased by LPS dose-dependently
same,luciferase expression by Western blotting,[2],luciferase expression was increased
dextran sulfate sodium salt [DSS],luciferase signal in the large intestine region of the abdomen,[3],strongly expressed
Cc1ccc(S(=O)(=O)/C=C/C#N)cc1 [BAY 11-7082],LPS-increased luciferase signal activity (NF-kB activity) after inhibitor treatment,[1]; 20 uM BAY 11-7082 simultaneously with LPS (10 and 100 ng/ml),inhibited; also recorded: suppressed
"CCCCCCCCCCCCCC(=O)O[C@@H]1[C@@H](C)[C@@]2(O)[C@@H](C=C(CO)C[C@]3(O)C(=O)C(C)=C[C@@H]23)[C@@H]2C(C)(C)[C@]12OC(C)=O [PMA, phorbol 12-myristate 13-acetate]",luciferase signal in treated left ear compared to ethanol-treated right ear,[4],specifically strong
